In US8222274B2, “Pyrrole derivative or salt thereof” (Astellas Pharma Inc., priority 2006, dated 2012):

Assays:
human 5-HT2B receptor = molecular target: T1, human 5-HT2B receptor (Homo sapiens, UniProt P41595); assay: 5-HT2B receptor binding test; settings: human 5-HT2B receptor expressing HEK293-EBNA cell membrane, [3H] Mesulergine
T1 construct: expressed in transfected cells; host or cells: HEK293-EBNA cells (membrane preparation)
Method: Test Method (1) 5-HT2B Receptor Binding Test
(i) Preparation of Membrane Sample
(§1) Cultured human 5-HT2B receptor expressing HEK293-EBNA cells were washed with a phosphate buffer (PBS)(−). The cells were peeled off with a scraper in the presence of PBS(−), and the cells were recovered by centrifugation (1,000 rpm, 10 minutes, 4° C.). In the presence of 5 mM tris-hydrochloric acid (Tris-HCl) (pH 7.4) buffer, homogenized using a homogenizer (registered trademark: Polytron (PTA 10-TS)), and centrifugation-treated (40,000×g, 10 minutes, 4° C.). In the presence of 50 mM Tris-HCl (pH 7.4) buffer, suspended using Glass-Teflon (registered trademark) homogenizer. By carrying out centrifugation treatment (40,000×g, 10 minutes, 4° C.), suspended in 50 mM Tris-HCl (pH 7.4) and stored at −80° C.
(§2) (ii) Receptor Binding Test
A total volume of 500 μl containing 50 mM Tris-HCl, a 4 mM CaCl2 (pH 7.4) buffer, a human 5-HT2B receptor expressing HEK293-EBNA cell membrane preparation and a radio-ligand [^3H] Mesulergine (3.1 TBq/mmol) was incubated at 25° C. for 1 hour. The compound was dissolved in 100% dimethyl sulfoxide (DMSO) and diluted to respective concentrations. Binding quantity in the presence of 1 μM ritanserin was regarded as the nonspecific binding, and a result of subtracting the nonspecific binding quantity from the total binding quantity was regarded as the specific binding quantity. After adding 4 ml of 50 mM Tris-HCl buffer (pH 7.4) and filtering under a reduced pressure using a GF/B glass filter, the filter was washed (4 ml×3) with the same buffer. By soaking the glass filter in 5 ml of a liquid scintillator (trade name: Aquasol-2), the radioactivity quantity was measured using a liquid scintillation counter. […] Ex represents example compound number which is described later.

human 5-HT7 receptor = molecular target: T2, human 5-HT7 receptor (Homo sapiens, UniProt P34969); assay: 5-HT7 receptor binding test; settings: human 5-HT7 receptor expressing CHO cell membrane, [3H] 5-HT
T2 construct: expressed in transfected cells; host or cells: CHO cells (membrane preparation)
Method: Test Method (2) 5-HT7 Receptor Binding Test (i) Preparation of Membrane Sample
as §1, with “5-HT7” for “5-HT2B”, “CHO” for “HEK293-EBNA”, “PBS(−).” for “a phosphate buffer (PBS)(−).”, “Tris-HCl” for “tris-hydrochloric acid (Tris-HCl)”
as §2
A total volume of 500 μl containing 50 mM Tris-HCl, a 4 mM CaCl2 (pH 7.4) buffer, a human 5-HT7 receptor expressing CHO cell membrane preparation and a radio-ligand [^3H] 5-HT (3.40 TBq/mmol) was incubated at 25° C. for 1 hour. The compound was dissolved in 100% DMSO and diluted to respective concentrations. Binding quantity in the presence of 10 μM metergoline was regarded as the nonspecific binding, and a result of subtracting the nonspecific binding quantity from the total binding quantity was regarded as the specific binding quantity. After adding 4 ml of 50 mM Tris-HCl buffer (pH 7.4) and filtering under a reduced pressure using a GF/B glass filter, the filter was washed (4 ml×3) with the same buffer. By soaking the glass filter in 5 ml of a liquid scintillator (trade name: Aquasol-2), the radioactivity quantity was measured using a liquid scintillation counter.

male Wistar rats = assay: Defecation suppressing effect at the time of restraint stress loading (rat restraint stress defecation model); assay type: in vivo; settings: for suppressing action on defecation / defecation-suppressing action: rat restraint stress, faces excreted during 1 hour after stress loading; for suppressing action on defecation: starting from a dose of 1 mg/kg (p.o.); for number of faces excreted, difference in comparison with the non-administration group: rat restraint stress, 1, 3 or 10 mg/kg administration group, N=10; for defecation-suppressing action: even at a dose of 10 mg/kg p.o.
Method: Test method (4) Defecation Suppressing Effect at the Time of Restraint Stress Loading
The IBS-treating effect of the compound (I) of the present invention was evaluated using a test method in which the amount of excreted faces is measured by loading a restraint stress on rats (see “The Journal of Pharmacology Experimental Therapeutics”, (USA), 1992, vol. 261, p. 297-303).
The agent to be tested was administered to male Wistar rats (body weight 250 to 320 g, 10 animals for each group), and a restraint stress was loaded 30 minutes thereafter. A restraint cage (trade name: KN-468, 265 mm in width×95 mm in length×200 mm in height, Natsume Seisakusho, Tokyo) was used for the restraint stress loading, and the number of faces excreted during 1 hour after the stress loading was counted.

5-HT2B receptor = settings: versus 5-HT1A, 5-HT1B, 5-HT2A, 5-HT2C, 5-HT3, 5-HT6, 5-HT7, α1, M1, D2 and the like; cited from earlier work

T2 sequence (P34969 whole entry): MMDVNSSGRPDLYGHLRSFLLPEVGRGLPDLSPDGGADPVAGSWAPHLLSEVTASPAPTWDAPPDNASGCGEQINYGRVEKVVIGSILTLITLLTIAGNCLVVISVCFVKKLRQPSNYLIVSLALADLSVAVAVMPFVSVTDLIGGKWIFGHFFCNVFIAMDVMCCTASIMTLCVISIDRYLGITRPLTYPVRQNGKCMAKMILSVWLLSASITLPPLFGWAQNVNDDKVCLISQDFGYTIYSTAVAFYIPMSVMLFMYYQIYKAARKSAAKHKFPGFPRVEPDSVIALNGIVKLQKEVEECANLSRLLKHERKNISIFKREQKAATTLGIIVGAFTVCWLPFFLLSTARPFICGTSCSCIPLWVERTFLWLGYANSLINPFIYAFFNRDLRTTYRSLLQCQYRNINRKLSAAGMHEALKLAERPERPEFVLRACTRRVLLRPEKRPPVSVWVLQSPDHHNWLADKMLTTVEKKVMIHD
T1 sequence (P41595 whole entry): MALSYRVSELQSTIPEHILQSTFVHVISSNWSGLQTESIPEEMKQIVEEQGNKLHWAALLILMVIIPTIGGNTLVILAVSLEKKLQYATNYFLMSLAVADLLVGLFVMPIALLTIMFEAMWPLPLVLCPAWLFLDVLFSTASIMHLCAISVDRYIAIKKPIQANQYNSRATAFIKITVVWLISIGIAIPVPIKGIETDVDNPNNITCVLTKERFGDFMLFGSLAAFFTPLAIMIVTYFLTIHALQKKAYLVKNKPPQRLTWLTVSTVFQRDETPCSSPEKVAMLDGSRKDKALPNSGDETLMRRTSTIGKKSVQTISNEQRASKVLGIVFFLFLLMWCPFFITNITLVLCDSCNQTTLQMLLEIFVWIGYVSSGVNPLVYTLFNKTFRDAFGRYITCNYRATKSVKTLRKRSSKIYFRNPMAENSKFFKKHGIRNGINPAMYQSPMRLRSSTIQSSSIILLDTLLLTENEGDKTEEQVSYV

Row | Compound | Ki (human 5-HT2B receptor) [nM] | Ki (human 5-HT7 receptor) [nM] | suppressing action on defecation (male Wistar rats) | number of faces excreted, difference in comparison with the non-administration group (male Wistar rats) | defecation-suppressing action (male Wistar rats) | 5-HT2B receptor-selective by a factor (5-HT2B receptor) [times]
1 | Cc1c(C(=O)N[C@H]2CCN(C)C2)c(C)n(CCc2ccc(F)cc2)c1C(C)(C)C [Example 218] | 9.2 | 4.3 | – | – | – | –
2 | Cc1c(C(=O)N[C@@H]2CCN(C)C2)c(C)n(CCc2ccc(F)cc2)c1C(C)(C)C [Example 217] | 2.3 | 8.2 | – | – | – | –
3 | CC1CCN(CC[C@H]2CCCN2S(=O)(=O)c2cccc(O)c2)CC1 [SB-269970, (R)-3-(2-(2-(4-methylpiperidin-1-yl)ethyl)pyrrolidine-1-sulfonyl)phenol] | – | – | – | Significant difference was not found | did not show the defecation-suppressing action | –
4 | Cc1c(C(=O)N=C(N)N)cc(-c2ccccc2)n1Cc1ccco1 [Example 98] | 9.6 | 28 | – | – | – | –
5 | Cc1c(C(=O)N=C(N)N)c(C)n(CCc2ccc(F)cc2)c1C(C)(C)C [Example 142] | 3.7 | 1.5 | – | – | – | –
6 | Cc1c(C(=O)N=C(N)N)cc(C2CCCC2)n1CCc1ccc(F)cc1 [Example 52] | 0.48 | 1.3 | – | – | – | –
7 | CC(C)c1cc(-c2ccc(F)c3ccccc23)nc(N)n1 [RS-127445, 2-amino-4-(4-fluoronaphth-1-yl)-6-isopropylpyrimidine] | – | – | – | Significant difference was not found | did not show defecation-suppressing action | ≥ 1000

The next lines start with results.

Row | Ki (human 5-HT2B receptor) [nM] | Ki (human 5-HT7 receptor) [nM] | Compound | suppressing action on defecation (male Wistar rats) | number of faces excreted, difference in comparison with the non-administration group (male Wistar rats) | defecation-suppressing action (male Wistar rats) | 5-HT2B receptor-selective by a factor (5-HT2B receptor) [times]
8 | 8.4 | 5.3 | Cc1c(C(=O)NC[C@@H]2CCCN2C)cc(C(C)(C)C)n1CCc1ccc(F)cc1 [Example 161] | significant suppressing action | – | – | –
9 | 2.1 | 14 | Cc1c(C(=O)N[C@@H]2CCN(C)C2)cc(C(C)(C)C)n1CCc1ccc(F)cc1 [Example 154] | significant suppressing action | – | – | –
10 | 7.7 | 1.1 | Cc1c(C(=O)NCCN(C)C)cc(C(C)(C)C)n1CCc1ccc(F)cc1 [Example 2, 5-tert-butyl-N-[2-(dimethylamino)ethyl]-1-[2-(4-fluorophenyl)ethyl]-2-methyl-1H-pyrrole-3-carboxamide] | – | – | – | –
11 | 0.68 | 11 | Cc1c(C(=O)NCCN(C)C)cc(-c2ccsc2)n1CCc1ccc(F)cc1 [Example 187] | – | – | – | –
12 | 12 | 6.5 | Cc1c(C(=O)N[C@H]2CCN(C)C2)cc(C(C)(C)C)n1CCc1ccc(F)cc1 [Example 153] | significant suppressing action | – | – | –
13 | 7.2 | 1.8 | Cc1c(C(=O)NCCN(C)C)cc(Cc2ccc(F)cc2)n1CCc1ccc(F)cc1 [Example 196] | – | – | – | –
14 | 7.1 | 4.1 | Cc1c(C(=O)NC[C@H]2CCCN2C)cc(C(C)(C)C)n1CCc1ccc(F)cc1 [Example 163] | – | – | – | –
15 | 7.5 | 3.1 | Cc1c(C(=O)NCCN(C)C)cc(C(C)(C)C)n1OCc1ccc(F)cc1 [Example 211] | – | – | – | –
